Entries after “also recorded” stand apart in the source; their conditions may differ. Read-outs that look alike come from different tables or passages of the source.

In this data set the test system is dsDNA. As to the kind of experiment: Real-time DNA melting assay (PicoGreen/ROX melting curves).
Excerpt: Components of this assay include 1) a reaction vessel free from DNase and RNase, 2) a dsDNA-specific dye, 3) a reference dye 4) dsDNA, and 5) the genotoxicant(s). […] As the sample is heated in the real-time thermocycler, the dsDNA melts becoming single-stranded. Single-stranded DNA no longer supports PicoGreen fluorescence, thus the relative amount of PicoGreen to ROX fluorescence declines proportionately to the loss of DNA base-pairing. As will be understood by the skilled artisan upon reading this disclosure, alternative fluorometric dyes or spectrophotometric dyes can be used in the method of the present invention.
In one embodiment, the raw dsDNA-specific fluorescence is normalized to the corresponding reference fluorescence at each temperature point to correct for decreased dye fluorescence resulting directly from the increasing solution temperature. This normalized fluorescence is then graphed as a function of temperature to produce the melting curve. Initial fluorescence from this curve is used to determine the extent of double-strand breakage. The first derivative of this melting curve is then plotted and used to determine both the initial melting temperature and the melting rate across the entire temperature gradient. […] A schematic representation of the typical melting curves is shown in FIG. 1 wherein, with increasing pH, salinity, or temperature, DNA dissociation increases resulting in a decrease in relative fluorescence.
The ability to detect DNA-damaging agents was first examined under conditions under which only the pharmaceutical agent was allowed to interact with the dsDNA.
(§1) Samples were analyzed using an ABI 7300 real time thermocycler over a temperature range of 4° C. to 99° C. Data is presented as PicoGreen fluorescence normalized to ROX.
as §1
Samples were analyzed over a temperature range of 4° C. to 99° C. using an ABI 7300 real time thermocycler. Data is presented as PicoGreen fluorescence normalized to ROX. […] When single strand breaks are in close proximity, double strand breaks can result.

The mark [1] stands for this setting: dsDNA 1,000 ng/ml treated with increasing concentrations of compound, PicoGreen normalized to ROX, 4° C. to 99° C.

Consider `C[C@]12CC[C@@H]3c4cc(O)c(O)cc4CC[C@H]3[C@@H]1CC[C@@H]2O` [2-hydroxyestradiol], for which, under setting [1], the initial fluorescence entry is “increase in initial fluorescence” and the initial melting slope result was “increase in initial melting slope”.
For the molecule `CC[C@@]1(O)C(=O)OCc2c1cc1n(c2=O)Cc2cc3ccccc3nc2-1` [camptothecin], the “effect on DNA melting curves” value (dsDNA 1,000 ng/ml treated with non-genotoxic concentrations, PicoGreen normalized to ROX, 4° C. to 99° C.) is listed as “lack of effect; also recorded: does not alter DNA melting”.
On to `CC[C@H](c1ccc(O)cc1)[C@@H](CC)c1ccc(O)cc1` [hexestrol], for which the initial melting temperature entry is on record as “decrease in the initial melting temperature”.
Consider `O=C1C(=O)c2ccccc2-c2ccccc21` [phenanthrenequinone], for which the initial melting temperature entry (dsDNA 1,000 ng/ml treated with increasing concentrations of compound, PicoGreen fluorescence normalized to ROX, 4° C. to 99° C.) is “increase in the initial melting temperature”.

These data come from patent US8927463B2, “Sensitive high throughput method for DNA damage and repair” (priority 2013, dated 2015).
